Measurements published in ChEMBL document CHEMBL4346710, “Discovery of 7H-pyrrolo[2,3-d]pyrimidine derivatives as selective covalent irreversible inhibitors of interleukin-2-inducible T-cell kinase (Itk)” (Eur J Med Chem, 2019).
Active and inactive are the calls of the source. No cut-off for these calls is given here.

Assays:
[1] = target: T1, Tyrosine-protein kinase JAK3 (Homo sapiens, UniProt P52333); test: Inhibition of recombinant human N-terminal His6-tagged JAK3 (781 to end residues) expressed in baculovirus infected Sf21 cells using STK as substrate by HTRF assay
T1 sequence (P52333 whole entry): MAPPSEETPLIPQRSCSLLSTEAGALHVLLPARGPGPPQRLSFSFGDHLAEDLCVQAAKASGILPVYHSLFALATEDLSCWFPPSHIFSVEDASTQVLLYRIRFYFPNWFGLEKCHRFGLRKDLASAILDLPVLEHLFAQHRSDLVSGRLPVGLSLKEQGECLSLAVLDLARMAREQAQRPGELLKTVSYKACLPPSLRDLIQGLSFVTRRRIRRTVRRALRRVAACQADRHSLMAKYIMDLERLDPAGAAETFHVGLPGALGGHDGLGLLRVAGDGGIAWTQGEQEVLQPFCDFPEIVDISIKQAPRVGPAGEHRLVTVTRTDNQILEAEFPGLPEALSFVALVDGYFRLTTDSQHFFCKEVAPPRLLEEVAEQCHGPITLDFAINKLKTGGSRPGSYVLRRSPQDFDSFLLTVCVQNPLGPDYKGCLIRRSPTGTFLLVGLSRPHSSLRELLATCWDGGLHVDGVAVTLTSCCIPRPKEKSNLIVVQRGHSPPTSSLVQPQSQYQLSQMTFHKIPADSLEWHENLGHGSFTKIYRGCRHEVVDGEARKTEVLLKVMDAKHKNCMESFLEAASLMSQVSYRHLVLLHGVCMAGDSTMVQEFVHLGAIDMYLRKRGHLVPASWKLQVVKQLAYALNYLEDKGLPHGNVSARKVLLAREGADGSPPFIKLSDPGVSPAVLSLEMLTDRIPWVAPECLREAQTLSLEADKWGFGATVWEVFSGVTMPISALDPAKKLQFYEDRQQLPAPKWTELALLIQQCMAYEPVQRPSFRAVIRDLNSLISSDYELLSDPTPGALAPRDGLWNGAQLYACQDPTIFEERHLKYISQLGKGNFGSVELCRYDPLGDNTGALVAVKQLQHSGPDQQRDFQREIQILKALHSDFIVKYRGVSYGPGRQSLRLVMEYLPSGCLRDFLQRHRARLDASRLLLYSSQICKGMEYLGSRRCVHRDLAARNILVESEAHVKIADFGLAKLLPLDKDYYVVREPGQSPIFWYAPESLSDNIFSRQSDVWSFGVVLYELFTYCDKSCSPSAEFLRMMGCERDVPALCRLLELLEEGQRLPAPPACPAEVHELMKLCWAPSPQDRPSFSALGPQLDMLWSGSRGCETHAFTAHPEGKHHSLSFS

[2] = target: Epidermal growth factor receptor (Homo sapiens, UniProt P00533); test: Inhibition of recombinant human N-terminal GST-tagged EGFR kinase domain (696 to end residues) expressed in baculovirus infected Sf21 insect cells using STK as substrate by HTRF assay
Sequence of Epidermal growth factor receptor (P00533 whole entry, the tested form may be a part): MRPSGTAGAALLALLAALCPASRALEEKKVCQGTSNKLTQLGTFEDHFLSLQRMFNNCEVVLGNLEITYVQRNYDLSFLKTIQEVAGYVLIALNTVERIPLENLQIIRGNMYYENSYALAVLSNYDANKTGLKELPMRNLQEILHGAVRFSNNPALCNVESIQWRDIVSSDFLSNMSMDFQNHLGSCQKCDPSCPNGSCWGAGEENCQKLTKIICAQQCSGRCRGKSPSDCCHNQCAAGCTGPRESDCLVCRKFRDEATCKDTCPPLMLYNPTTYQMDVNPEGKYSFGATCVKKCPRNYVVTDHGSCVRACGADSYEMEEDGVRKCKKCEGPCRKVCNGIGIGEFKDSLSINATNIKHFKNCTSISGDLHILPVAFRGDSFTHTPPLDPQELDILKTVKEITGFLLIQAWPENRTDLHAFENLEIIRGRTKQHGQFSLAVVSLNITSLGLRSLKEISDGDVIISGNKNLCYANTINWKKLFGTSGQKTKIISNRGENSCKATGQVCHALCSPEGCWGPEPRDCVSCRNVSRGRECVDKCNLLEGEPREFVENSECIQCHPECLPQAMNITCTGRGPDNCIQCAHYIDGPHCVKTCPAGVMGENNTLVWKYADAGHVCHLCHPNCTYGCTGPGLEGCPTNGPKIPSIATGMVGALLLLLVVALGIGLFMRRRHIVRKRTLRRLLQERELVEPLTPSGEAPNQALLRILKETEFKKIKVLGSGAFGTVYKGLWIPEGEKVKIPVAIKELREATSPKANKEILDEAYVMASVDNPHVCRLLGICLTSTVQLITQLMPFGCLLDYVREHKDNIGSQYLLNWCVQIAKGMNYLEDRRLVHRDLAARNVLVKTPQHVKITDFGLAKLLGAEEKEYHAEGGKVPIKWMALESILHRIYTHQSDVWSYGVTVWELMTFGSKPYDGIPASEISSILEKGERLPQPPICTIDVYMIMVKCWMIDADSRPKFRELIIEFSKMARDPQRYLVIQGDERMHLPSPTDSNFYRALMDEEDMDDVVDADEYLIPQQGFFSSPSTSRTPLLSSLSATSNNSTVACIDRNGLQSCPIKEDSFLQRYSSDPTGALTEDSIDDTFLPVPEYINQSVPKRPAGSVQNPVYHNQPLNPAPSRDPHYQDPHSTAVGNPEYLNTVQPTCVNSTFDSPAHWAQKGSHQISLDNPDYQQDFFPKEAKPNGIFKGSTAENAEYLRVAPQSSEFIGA

[3] = target: T2, Tyrosine-protein kinase ITK/TSK (Homo sapiens, UniProt Q08881); test: Inhibition of recombinant human N-terminal His6-tagged ITK (352 to 617 residues) expressed in baculovirus infected Sf21 insect cells using STK substrate by HTRF assay
T2 sequence (Q08881 whole entry): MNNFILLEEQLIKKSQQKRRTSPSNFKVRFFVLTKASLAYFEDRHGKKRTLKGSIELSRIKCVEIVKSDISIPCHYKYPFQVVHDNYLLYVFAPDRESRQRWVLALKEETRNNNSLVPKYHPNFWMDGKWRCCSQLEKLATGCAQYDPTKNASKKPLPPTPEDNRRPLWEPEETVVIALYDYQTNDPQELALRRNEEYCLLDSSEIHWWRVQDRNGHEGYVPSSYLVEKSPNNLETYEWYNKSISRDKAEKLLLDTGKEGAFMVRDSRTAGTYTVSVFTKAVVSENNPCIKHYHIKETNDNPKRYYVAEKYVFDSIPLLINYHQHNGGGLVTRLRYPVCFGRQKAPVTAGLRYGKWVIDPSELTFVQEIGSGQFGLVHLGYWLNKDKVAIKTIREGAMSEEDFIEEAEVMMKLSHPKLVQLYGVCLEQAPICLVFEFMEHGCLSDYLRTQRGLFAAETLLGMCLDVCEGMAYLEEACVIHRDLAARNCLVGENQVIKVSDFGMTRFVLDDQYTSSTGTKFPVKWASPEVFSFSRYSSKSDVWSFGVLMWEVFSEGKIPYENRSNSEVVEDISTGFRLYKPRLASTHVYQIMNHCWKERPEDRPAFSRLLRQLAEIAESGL

[4] = target: Tyrosine-protein kinase BTK (Homo sapiens, UniProt Q06187); test: Inhibition of recombinant human full-length N-terminal His6-tagged BTK expressed in baculovirus infected Sf21 insect cells using STK substrate by HTRF assay
Sequence of Tyrosine-protein kinase BTK (Q06187 whole entry): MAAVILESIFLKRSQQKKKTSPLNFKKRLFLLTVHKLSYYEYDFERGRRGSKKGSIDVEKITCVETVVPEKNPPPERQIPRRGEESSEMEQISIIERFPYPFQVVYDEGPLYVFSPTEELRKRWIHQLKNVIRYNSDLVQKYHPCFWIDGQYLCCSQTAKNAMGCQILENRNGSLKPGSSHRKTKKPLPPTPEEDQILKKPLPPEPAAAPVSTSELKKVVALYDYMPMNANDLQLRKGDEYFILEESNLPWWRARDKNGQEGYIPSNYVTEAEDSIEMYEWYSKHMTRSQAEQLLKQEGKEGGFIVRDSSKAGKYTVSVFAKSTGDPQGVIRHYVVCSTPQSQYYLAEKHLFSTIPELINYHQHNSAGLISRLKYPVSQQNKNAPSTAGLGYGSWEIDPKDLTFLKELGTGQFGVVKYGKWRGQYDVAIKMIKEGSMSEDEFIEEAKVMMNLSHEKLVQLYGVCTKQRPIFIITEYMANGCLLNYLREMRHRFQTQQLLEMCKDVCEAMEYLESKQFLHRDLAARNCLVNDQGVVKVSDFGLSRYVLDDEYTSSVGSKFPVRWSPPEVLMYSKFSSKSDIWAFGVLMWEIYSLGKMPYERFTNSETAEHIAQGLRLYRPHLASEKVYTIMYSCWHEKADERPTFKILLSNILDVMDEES

[5] = target: Tyrosine-protein kinase Blk (Homo sapiens, UniProt P51451); test: Inhibition of BLK (unknown origin) using […] as substrate by HTRF assay
Sequence of Tyrosine-protein kinase Blk (P51451 whole entry): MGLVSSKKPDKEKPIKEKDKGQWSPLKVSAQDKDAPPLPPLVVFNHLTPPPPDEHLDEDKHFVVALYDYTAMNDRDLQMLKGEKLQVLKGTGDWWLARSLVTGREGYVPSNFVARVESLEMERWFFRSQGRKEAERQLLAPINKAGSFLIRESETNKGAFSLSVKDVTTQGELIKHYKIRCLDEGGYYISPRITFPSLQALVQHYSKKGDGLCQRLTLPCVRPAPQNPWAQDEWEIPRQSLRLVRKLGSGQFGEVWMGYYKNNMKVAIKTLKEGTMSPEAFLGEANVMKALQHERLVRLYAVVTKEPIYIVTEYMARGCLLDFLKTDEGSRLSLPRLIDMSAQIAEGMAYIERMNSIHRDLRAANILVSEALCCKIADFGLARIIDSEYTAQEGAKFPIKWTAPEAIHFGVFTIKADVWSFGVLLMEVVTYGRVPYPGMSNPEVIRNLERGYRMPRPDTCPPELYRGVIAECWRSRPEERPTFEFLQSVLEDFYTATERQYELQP

[6] = target: T3, Tyrosine-protein kinase ITK/TSK (Homo sapiens) (UniProt Q08881); test: Inhibition of ITK in human Jurkat cells assessed as reduction in anti-CD3/CD28-stimulated PLCgamma1 phosphorylation at 0.1 to 10000 nM preincubated for 2 hrs followed by anti-CD3/CD28 beads addition and measured after 30 min by Western blot analysis; assay type: cell-based
T3 sequence (whole entry): T2 sequence (Q08881 whole entry)

[7] = target: T3, Tyrosine-protein kinase ITK/TSK (Homo sapiens); test: Covalent binding affinity to recombinant human ITK assessed as binding to Cys442 residue at 50 uM incubated for 24 hrs prior to trypsin addition for 4 hrs and boiled for 3 min followed by chymotrypsin addition and measured after overnight incubation by LC/MS/MS analysis
[8] = target: T3, Tyrosine-protein kinase ITK/TSK (Homo sapiens); test: Inhibition of recombinant human N-terminal His6-tagged ITK (352 to 617 residues) expressed in baculovirus infected Sf21 insect cells assessed as inactivation rate constant using STK substrate by HTRF assay
[9] = target: T3, Tyrosine-protein kinase ITK/TSK (Homo sapiens); test: Inhibition of recombinant human N-terminal His6-tagged ITK (352 to 617 residues) expressed in baculovirus infected Sf21 insect cells assessed as ratio of Kinact to Ki using STK substrate by HTRF assay
[10] = target: T2, Tyrosine-protein kinase ITK/TSK; test: Inhibition of kinase tracer 236 binding to recombinant full length GST-tagged human ITK cytoplasmic domain expressed in baculovirus expression system incubated for 60 mins by Lanthascreen assay
Jurkat = test: Growth inhibition of human Jurkat cells incubated for 72 hrs by CellTiter-Glo luminescent cell viability assay; assay type: functional
CCRF-CEM = test: Growth inhibition of human CCRF-CEM cells incubated for 72 hrs by CellTiter-Glo luminescent cell viability assay; assay type: functional
HEK-293T = test: Growth inhibition of HEK293T cells incubated for 72 hrs by CellTiter-Glo luminescent cell viability assay; assay type: functional; conditions: Homo sapiens
MOLT-4 = test: Growth inhibition of human MOLT4 cells incubated for 72 hrs by CellTiter-Glo luminescent cell viability assay; assay type: functional; conditions: MOLT-4, 72 h
H9 = test: Growth inhibition of human H9 cells incubated for 72 hrs by CellTiter-Glo luminescent cell viability assay; assay type: functional; conditions: H9, 72 h
[11] = target: T3, Tyrosine-protein kinase ITK/TSK (Homo sapiens); test: Inhibition of human ITK at 1 uM using MAP as substrate in presence of [gamma33P]-ATP relative to control

Work on C=CC(=O)N1CCC(Oc2nc(Nc3ccc(N4CCN(C(C)=O)CC4)cc3)nc3[nH]cc(-c4cncc(NC)n4)c23)CC1 yielded an IC50 [1] of 51 nM, an IC50 [2] of 903 nM and an IC50 [3] of 2.3 nM. The IC50 [4] was 1480 nM.

With CNc1cncc(-c2c[nH]c3nc(Nc4ccc(N5CCN(C(C)=O)CC5)cc4)nc(OC4CCOCC4)c23)n1 the IC50 [1] was 186 nM, the IC50 [2] was 937 nM and the IC50 [3] was 7.1 nM. The IC50 [4] was 1610 nM.

With C=CC(=O)N1CCC[C@@H](Oc2nc(Nc3ccc(N4CCN(CC)CC4)cc3)nc3[nH]cc(-c4cncc(NC)n4)c23)C1 the IC50 [1] was 1.2 nM, the IC50 [2] was 8.7 nM and the IC50 [3] was 1.3 nM. The IC50 [4] was 26 nM.

C=CC(=O)Nc1cccc(Oc2nc(Nc3ccc(N4CCN(C(C)=O)CC4)cc3)nc3[nH]cc(-c4cncc(NC)n4)c23)c1 gave an IC50 [3] of 5.4 nM and an IC50 [4] of 8 nM.

C=CC(=O)Nc1cccc(Oc2nc(Nc3ccc(N4CCOCC4)cc3)nc3[nH]cc(-c4ccncc4)c23)c1 showed an IC50 [5] of 0.7 nM, an IC50 [1] of 0.6 nM and an IC50 [2] of 2.3 nM. For the same molecule, the IC50 [3] was 0.5 nM and the IC50 [4] was 3.9 nM.

With C=CC(=O)N1CCC(Oc2nc(Nc3ccc(N4CCOCC4)cc3)nc3[nH]cc(-c4cccc(NC)n4)c23)CC1 the IC50 [1] was 1430 nM, the IC50 [2] was over 3000 nM and the IC50 [3] was 74 nM. For the same molecule, the IC50 [4] was over 10000 nM.

With C#CCCN1CCN(c2ccc(Nc3nc(OC4CCN(C(=O)C=C)CC4)c4c(-c5cncc(NC)n5)c[nH]c4n3)cc2)CC1 the IC50 [1] was 61 nM, the IC50 [2] was over 3000 nM and the IC50 [3] was 55 nM. The IC50 [4] was over 3000 nM.

With C=CC(=O)N1CCC(Oc2nc(Nc3ccc(N4CCOCC4)cc3)nc3[nH]cc(-c4ccnc(NC)c4)c23)CC1 the IC50 [1] was 4.2 nM, the IC50 [2] was 38 nM and the IC50 [3] was under 1.26 nM. The IC50 [4] was 36 nM.

In the case of C=CC(=O)N1CCC[C@H](Oc2nc(Nc3ccc(N4CCN(C(C)=O)CC4)cc3)nc3[nH]cc(-c4cncc(NC)n4)c23)C1, the IC50 [3] is reported as 375 nM and the IC50 [4] is reported as over 10000 nM.

Work on CNc1cncc(-c2c[nH]c3nc(Nc4ccc(N5CCN(C(C)=O)CC5)cc4)nc(Oc4ccccc4)c23)n1 yielded an IC50 [1] of 470 nM, an IC50 [2] of 1050 nM and an IC50 [3] of 5.4 to 19 nM. It also gave an IC50 [4] of 1460 nM.

With C=CC(=O)N1CCC[C@@H]1COc1nc(Nc2ccc(N3CCN(C(C)=O)CC3)cc2)nc2[nH]cc(-c3cncc(NC)n3)c12 the IC50 [1] was 69 nM, the IC50 [2] was 150 nM and the IC50 [3] was 2.2 nM. The IC50 [4] was 286 nM.

With C=CC(=O)N1CCC[C@@H](Oc2nc(Nc3ccc(N4CCOCC4)cc3)nc3[nH]cc(-c4cncc(NC)n4)c23)C1 the inhibition [6] was “Active”, the IC50 [1] was 11 nM and the Activity [7] was “Active”. It also gave an IC50 [2] of 138 nM, an IC50 [3] of under 1.26 nM and a Ki [3] of 5.8 nM. The K [8] was 0.31 min⁻¹, the IC50 [4] was 35 nM and the Ratio [9] was 891 ×10³ /M.s.

C=CC(=O)N1CCC[C@@H](Oc2nc(Nc3ccc(N4CCN(C(C)=O)CC4)cc3)nc3[nH]cc(-c4cncc(NC)n4)c23)C1 was tested, and the inhibition [6] was “Active”, the IC50 [1] was 24 nM and the IC50 [2] was 499 nM. For the same molecule, the IC50 [3] was 3.7 nM, the Ki [3] was 33.7 nM and the K [8] was 0.31 min⁻¹. The IC50 [4] was 270 nM and the Ratio [9] was 153 ×10³ /M.s.

COc1ccc(-c2c[nH]c3nc(Nc4ccc(N5CCOCC5)cc4)nc(Oc4ccccc4)c23)cc1 showed an IC50 [10] of over 10000 nM.

C=CC(=O)N1CCC(Oc2nc(Nc3ccc(N4CCOCC4)cc3)nc3[nH]cc(-c4cncc(NC)c4)c23)CC1 showed an IC50 [1] of 84 nM, a GI50 (Jurkat) of 188 nM and a GI50 (CCRF-CEM) of 48 nM. The IC50 [2] was over 3000 nM, the GI50 (HEK-293T) was 270 nM and the GI50 (MOLT-4) was 109 nM. The GI50 (H9) was 190 nM, the IC50 [3] was 3.6 nM and the IC50 [4] was 942 nM.

CNc1cncc(-c2c[nH]c3nc(Nc4ccc(N5CCN(C(C)=O)CC5)cc4)nc(OC4CCCCC4)c23)n1 showed an IC50 [1] of 104 nM, an IC50 [2] of 654 nM and an IC50 [3] of 5.1 nM. It also gave an IC50 [4] of 1470 nM.

Nc1ccc(-c2c[nH]c3nc(Nc4ccc(N5CCOCC5)cc4)nc(Oc4ccccc4)c23)cc1 was tested, and the IC50 [10] was over 10000 nM.

In the case of C=CC(=O)Nc1cccc(Oc2nc(Nc3ccc(N4CCN(C)CC4)c(F)c3)nc3[nH]ccc23)c1, the inhibition [11] is reported as 80%.

C=CC(=O)N1CCC[C@H]1COc1nc(Nc2ccc(N3CCN(C(C)=O)CC3)cc2)nc2[nH]cc(-c3cncc(NC)n3)c12 gave an IC50 [1] of 3.7 nM, an IC50 [2] of 1970 nM and an IC50 [3] of 7.8 nM. The IC50 [4] was 434 nM.
